Results from US20240300886A1, “ARYLCYCLOHEXYLAMINE DERIVATIVES AND THEIR USE IN THE TREATMENT OF PSYCHIATRIC DISORDERS” (GILGAMESH PHARMACEUTICALS, INC., priority 2021, published 2024).

Experiments:
[1] = target: MK-801 binding site of the N-methyl-D-aspartate receptor (NMDAR); assay: NMDA receptor radioligand binding with [3H]MK-801; set-up: species or system Wistar rat; conditions: [3H]MK-801 displacement, Wistar rat brain (minus cerebellum); read-out: NMDAR Ki (95% CI)
Protocol: The binding affinities of disclosed compounds at the MK-801 binding site of the N-methyl-D-aspartate receptor (NMDAR) were determined in radioligand binding experiments (Table 13).
Radioligand Binding. Affinity of the test compounds for NMDAR was determined in radioligand binding experiments with [^3H]MK-801 by Eurofins Panlabs, Inc., using methods adapted from the literature (Javitt el al. 1987; Reynolds et al. 1989) and under the conditions described in Table 14.

[2] = Metabolic stability in mouse liver microsomes (MLM); format: in vitro ADME, CD-1 mice; conditions: male, CD-1, mouse, pooled mouse liver microsomes, pH 7.4, 1 μM compound, 0.50 mg protein/mL, NADPH
Protocol: (§1) MLM Stability. Pooled MLM from male CD-1 mice (XenoTech M1000) were used. Microsomal incubations were carried out in multi-well plates. Liver microsomal incubation medium consisted of PBS (100 mM, pH 7.4), MgCl2 (1 mM), and NADPH (1 mM), with 0.50 mg of liver microsomal protein per mL. Control incubations were performed by replacing the NADPH-cofactor system with PBS. Test compounds (1 μM, final solvent concentration 1.0%) were incubated with microsomes at 37° C. with constant shaking. Six time points over 60 minutes were analyzed, with 60 μL aliquots of the reaction mixture being drawn at each time point. The reaction aliquots were stopped by adding 180 μL of cold (4° C.) acetonitrile containing 200 ng/mL tolbutamide and 200 ng/mL labetalol as internal standards (IS), followed by shaking for 10 minutes, and then protein sedimentation by centrifugation at 4,000 rpm for 20 minutes at 4° C. Supernatant samples (80 μL) were diluted with water (240 μL) and analyzed for parent compound remaining using a fit-for-purpose liquid chromatography-tandem mass spectrometry (LC-MS/MS) method.
Data Analysis. The elimination constant (kel), half-life (t1/2) and intrinsic clearance (Clint) were determined in a plot of ln(AUC) versus […], using linear regression analysis.

[3] = Metabolic stability in cynomolgus monkey liver microsomes (CLM); format: in vitro ADME, cynomolgus monkeys; conditions: male, cynomolgus monkey, pooled cynomolgus monkey liver microsomes, pH 7.4, 1 μM compound, 0.50 mg protein/mL, NADPH
Protocol: as §1, with “CLM” for “MLM”, “cynomolgus monkeys (Corning 452413)” for “CD-1 mice (XenoTech M1000)”
(§2) Data Analysis. The elimination constant (kel), half-life (t1/2) and intrinsic clearance (Clint) were determined in a plot of […] versus time, using linear regression analysis.

[4] = Metabolic stability in rat liver microsomes (RLM); format: in vitro ADME, Sprague Dawley rats; conditions: male, Sprague Dawley, rat, pooled rat liver microsomes, pH 7.4, 1 μM compound, 0.50 mg protein/mL, NADPH
Protocol: as §1, with “RLM” for “MLM”, “Sprague Dawley rats” for “CD-1 mice”, “R1000)” for “M1000)”
as §2

[5] = target: serotonin transporter (SERT) (Homo sapiens (Human), UniProt P31645); assay: SERT fluorescent substrate uptake inhibition in transfected cells; format: cell-based; conditions: stably transfected cells expressing SERT
Protocol: The ability of disclosed compounds to inhibit uptake of monoamines by the serotonin transporter (SERT) was measured using a fluorescent substrate uptake assay in transfected cells (Table 15). […] Considering that inhibitors of SERT are well known to have antidepressant and anxiolytic effects and are among the most commonly prescribed drugs for mood disorders (e.g. fluoxetine, sertraline, etc.), blockade of SERT by certain compounds of the present disclosure is expected to synergize with their NMDAR inhibition to increase therapeutic activity for treating depression and related disorders. […] Further, the ability to tune the ratio between SERT and NMDAR is useful to obtain the optimal therapeutic profile depending on the intended clinical indication.
Uptake Inhibition. The ability of test compounds to block monoamine uptake by SERT was determined using the Neurotransmitter Transporter Uptake Assay Kit manufactured by Molecular Devices (Cat #R8173). Briefly, stably transfected cells expressing SERT were grown and plated into 384-well plates at a concentration of 20,000 cells per well. Plates were then incubated for 16-20 h at 37° C. and 5% CO2. The medium was then aspirated and replaced with 25 μL of assay buffer (20 mM HEPES in HBSS, containing 0.1% BSA) containing the test compounds at the appropriate concentrations. Plates were then centrifuged at 300 rpm for 15 s and then incubated at 37° C. for 30 minutes. At this time, 25 μL of the proprietary fluorescent dye solution was added, the plates were incubated at 37° C. for 60 minutes, and then fluorescence was quantified on a plate reader (excitation wavelength=440 nm, emission wavelength=520 nm). The proprietary dye solution contains a mixture of 1) a fluorescent dye that mimics the endogenous substrate of SERT and is thereby actively transported to the intracellular compartment in the absence of an inhibitor and 2) a masking dye that inhibits the fluorescence of dye 1 in the extracellular compartment. Therefore, the overall fluorescence of the system increases as the fluorescent dye is transported into the cells.

[6] = Metabolic stability in human liver microsomes (HLM); format: in vitro ADME; conditions: 0.50 mg protein/mL, NADPH
Protocol: HLM Stability. Pooled HLM from adult male and female donors (Corning 452117) were used. Microsomal incubations were carried out in multi-well plates. Liver microsomal incubation medium consisted of PBS (100 mM, pH 7.4), MgCl2 (1 mM), and NADPH ([…]), with 0.50 mg of liver microsomal protein per mL. Control incubations were performed by replacing the NADPH-cofactor system with PBS. Test compounds (1 μM, final solvent concentration 1.0%) were incubated with microsomes at 37° C. with constant shaking, Six time points over 60 minutes were analyzed, with 60 μL aliquots of the reaction mixture being drawn at each time point. The reaction aliquots were stopped by adding 180 μL of cold (4° C.) acetonitrile containing 200 ng/mL tolbutamide and 200 ng/mL labetalol as internal standards (IS), followed by shaking for 10 minutes, and then protein sedimentation by centrifugation at 4,000 rpm for 20 minutes at 4° C. Supernatant samples (80 μL) were diluted with water (240 μL) and analyzed for parent compound remaining using a fit-for-purpose liquid chromatography-tandem mass spectrometry (LC-MS/MS) method.
as §2

[7] = Metabolic stability in dog liver microsomes (DLM); format: in vitro ADME, beagle dogs; conditions: male, beagle, dog, pooled dog liver microsomes, pH 7.4, 1 μM compound, 0.50 mg protein/mL, NADPH
Protocol: as §1, with “DLM” for “MLM”, “beagle dogs” for “CD-1 mice”, “D1000)” for “M1000)”, “([…]),” for “(IS),”
as §2

Structure (SMILES)	Ki [1] [nM]	half-life at 1 μM [2] [h]	microsomal CLint at 1 μM [2] [µL/min/mg]	half-life at 1 μM [3] [h]	microsomal CLint at 1 μM [3] [µL/min/mg]	half-life at 1 μM [4] [h]	microsomal CLint at 1 μM [4] [µL/min/mg]	inhibition at 10 µM [5] [%]	Clint ([6]; 1 μM compound) [μL/min/m]	half-life at 1 μM ([6]; both sexes, human, pooled human liver microsomes, pH 7.4, 1 μM compound) [h]	half-life at 1 μM [7] [h]	microsomal CLint at 1 μM [7] [µL/min/mg]
CN[C@@]1(c2ccccc2Cl)CCCCC1=O [(R)-ketamine, reference compound]	2200											
N[C@@]1(c2cccc(F)c2)CCCCC1=O [Compound 3R, (R)-2-amino-2-(3-fluorophenyl)cyclohexan-1-one]		2	11.6	1.85	12.5	> 2.42	< 9.6	1.75	<9.6	> 2.42	0.667	34.6
CN[C@]1(c2ccccc2Cl)CCCCC1=O [(S)-ketamine, reference compound]	700											
